Test system: AP-1 induced transcriptional activity
Assay: Cellular Transrepressional Assay (AP-1 luciferase reporter, PMA-activated A549 cells)
Assay type: cell-based
Conditions: Homo sapiens; for Emax: A549, 7 h, maximum inhibition, Cellular Transrepression Assay, read-out: AP-1 Max % inh (Cellular Transrepression Assay); for EC50: A549, Cellular Transrepression Assay
Method: Cellular Transrepressional Assay
To measure the ability of test molecules to inhibit AP-1 induced transcriptional activity we utilized an A549 cell which was stably transfected with a plasmid containing 7× AP-1 DNA binding sites (pAP-1-Luc plasmid, Stratagene Co. La Jolla, Calif.) followed by the gene for luciferase. Cells were activated with 10 ng/ml of […] (PMA) plus or minus test molecules for 7 hours. After 7 hours a luciferase reagent was added to measure luciferase enzymatic activity in the cell. After a 10 minute incubation of luciferase reagent with cells, luminescence was measured in a TopCount luminescence counter. Repression of AP-1 activity was calculated as the percentage decrease in the signal induced by PMA alone. Test molecules were analyzed in the concentration range from 0.1 nM to 40 μM. EC50s were determined by using standard curve fitting methods such as Excel fit (Microsoft Co.).

SMILES | EC50 [nM] | Emax [%]
CC(C)(C(=O)Nc1nc(-c2cccc3ccccc23)cs1)C1c2ccccc2Oc2nc(Cl)ccc21 (stereo not drawn) [Example 74] | 319 | 71.2
COc1ccc(Cc2csc(NC(=O)C(C)(C)C3c4ccccc4Oc4nc(OC)ccc43)n2)cc1 (stereo not drawn) [Example 77] | 91.6 | 73.9
COc1ccc2c(n1)Oc1ccccc1C2C(C)(C)C(=O)Nc1nc(-c2ccc(F)c3ccccc23)cs1 (stereo not drawn) [Example 78] | 164 | 65.1
COc1cccc2c1Oc1ccccc1C2C(C)(C)C(=O)Nc1nc(-c2ccc(F)c3ccccc23)cs1 (stereo not drawn) [Example 82] | 126 | 72.6
COc1ccc(Cc2csc(NC(=O)C(C)(C)C3c4ccccc4Oc4c(OCCN(C)C)cccc43)n2)cc1 (stereo not drawn) [Example 85] |  | 88.4
Cc1cnc(NC(=O)C(C)(C)[C@H]2c3ccccc3Oc3cc(O)ccc32)s1 [Example 87] | 91.1 | 46
Cc1csc(NC(=O)C(C)(C)[C@H]2c3ccccc3Oc3cc(O)ccc32)n1 [Example 88] | 128 | 49.2
CC(C)(C(=O)Nc1nccs1)[C@H]1c2ccccc2Oc2cc(O)ccc21 [Example 89] | 18.1 | 68.3
CC(C)(C(=O)Nc1nncs1)[C@@H]1c2ccccc2Oc2cc(O)ccc21 [Example 95] | 574 | 52.2
Cc1nnc(NC(=O)C(C)(C)C2c3ccccc3Oc3cc(O)ccc32)s1 (stereo not drawn) [Example 100] | 256 | 71.7
CC(C)Oc1cnc(-c2ccc3c(c2)Oc2ccccc2[C@@H]3C(C)(C)C(=O)Nc2nncs2)nc1 [Example 107] | 833 | 22.8
CN(C)C(=O)c1cnc(-c2ccc3c(c2)Oc2ccccc2C3C(C)(C)C(=O)Nc2nncs2)nc1 (stereo not drawn) [Example 109] | 182 | 60.2
CCc1cnc(-c2ccc3c(c2)Oc2ccccc2[C@H]3C(C)(C)C(=O)Nc2nncs2)nc1 [Example 110] | 183 | 35.7
CC(C)(C(=O)Nc1nncs1)C1c2ccccc2Oc2cc(NC(=O)OCc3ccccc3)ccc21 (stereo not drawn) [Example 119] | 83 | 45.3
Cc1ccc(COC(=O)Nc2ccc3c(c2)Oc2ccccc2C3C(C)(C)C(=O)Nc2nncs2)cc1 (stereo not drawn) [Example 121] | 59.5 | 44.8
CC(C)(C(=O)Nc1nncs1)C1c2ccccc2Oc2cc(NC(=O)NC3CCCC3)ccc21 (stereo not drawn) [Example 125] | 94.3 | 33.2
COc1ccc(CNc2ccc3c(n2)Oc2ccccc2C3C(C)(C)C(=O)Nc2nncs2)cc1 (stereo not drawn) [Example 128] | 92 | 66.3

Further compounds by falling EC50, results first:

EC50 [nM] | SMILES | Emax [%]
58 | CN(C)C(=O)c1ccc(-c2ccc3c(c2)Oc2ccccc2C3C(C)(C)C(=O)Nc2nncs2)nc1 (stereo not drawn) [Example 102] | 45
49.7 | CC(C)(C(=O)Nc1nncs1)C1c2ccccc2Oc2cc(-c3nn[nH]n3)ccc21 (stereo not drawn) [Example 126] | 30.8
24.1 | CCc1cnc(-c2ccc3c(c2)Oc2ccccc2C3C(C)(C)C(=O)Nc2nncs2)nc1 (stereo not drawn) [Example 106] | 48.4
15 | COc1cccc2c1Oc1ccccc1C2C(C)(C)C(=O)Nc1nc(Cc2ccc(-c3ccncc3)cc2)cs1 (stereo not drawn) [Example 83] | 69.6
14.6 | CCc1cnc(-c2ccc3c(c2)Oc2ccccc2[C@@H]3C(C)(C)C(=O)Nc2nncs2)nc1 [Example 111] | 40.7
12.2 | CC(C)Oc1ccc(-c2ccc3c(c2)Oc2ccccc2C3C(C)(C)C(=O)Nc2nncs2)nc1 (stereo not drawn) [Example 105] | 30.5
9.42 | COc1ccc2c(n1)Oc1ccccc1C2C(C)(C)C(=O)Nc1nc(Cc2ccc(-c3ccncc3)cc2)cs1 (stereo not drawn) [Example 79] | 62.3
6.43 | CC(C)(C(=O)Nc1nncs1)[C@H]1c2ccccc2Oc2cc(O)ccc21 [Example 90] | 59.5
3.9 | CC(C)(C(=O)Nc1nncs1)C1c2ccccc2Oc2cc(/C(N)=N\O)ccc21 (stereo not drawn) [Example 115] | 31.3

Source: patent US8034940B2, “Modulators of glucocorticoid receptor, AP-1, and/or NF-κB activity and use thereof” (Bristol-Myers Squibb Company, priority 2006, dated 2011)
